In US20260250318A1, “COMPOSITIONS AND METHODS FOR CROSSING THE BLOOD BRAIN BARRIER” (VOYAGER THERAPEUTICS, INC., priority 2022, published 2026):

Key:
Settings in all cases: synthetic library passage 3, intravenous, relative to wild-type AAV9
[1] = test system: brain, spinal cord, and DRG of the NHPs; experiment: NGS fold enrichment of synthetic library (passage 3) in NHPs, first cross-species screen; assay type: in vivo, cynomolgus macaques (Macaca fascicularis)
Outline: (§1)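 Passage-3 synthetic capsid library given intravenously […] to NHPs (2-4 years) and BALB/c or C57Bl/6 mice (n=3, 6-8 weeks). After e.g. 28 days, tissue RNA was RT-PCR amplified and NGS-sequenced; values are fold enrichment of each variant relative to wild-type AAV9.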

brain [2] = experiment: NGS fold enrichment of synthetic library (passage 3) in BALB/c mice, first cross-species screen; assay type: in vivo
Outline: as §1

brain [3] = experiment: NGS fold enrichment of synthetic library (passage 3) in C57Bl/6 mice, first cross-species screen; assay type: in vivo
Outline: as §1

[4] = RNA from spinal cord of NHPs, NGS
[5] = RNA from brain of BALB/c mice, NGS
[6] = RNA from brain of C57Bl/6 mice, NGS

| Sequence | Fold enrichment over AAV9 in the brain of NHPs ([1]; RNA from brain of NHPs, NGS) [fold] | Fold enrichment over AAV9 in the spinal cord of NHPs [1, 4] [fold] | Fold enrichment over AAV9 in the brain of Mice (BALB/c) (brain [2]; [5]) [fold] | Fold enrichment over AAV9 in the brain of Mice (C57Bl/6) (brain [3]; [6]) [fold] | Fold enrichment over AAV9 in the brain of NHPs ([1]; RNA NGS, brain of NHPs) [fold] | Fold enrichment over AAV9 in the spinal cord of NHPs ([1]; RNA NGS, spinal cord of NHPs) [fold] | Fold enrichment over AAV9 in the brain of Mice (BALB/c) (brain [2]; RNA NGS, brain of BALB/c mice) [fold] | Fold enrichment over AAV9 in the brain of Mice (C57Bl/6) (brain [3]; RNA NGS, brain of C57Bl/6 mice) [fold] |
| --- | --- | --- | --- | --- | --- | --- | --- | --- |
| GSGQNQQLVSRVQT | 1.381 | 1.195 | 0.466 | 0.656 | – | – | – | – |
| GSGQNQQMAGAFRT | – | – | – | – | 1.003 | 1.784 | 0.762 | 1.307 |
| GSGQNQQMPGLSST | 1.204 | 1.887 | 0.181 | 0.234 | – | – | – | – |
| GSGQNQQNLGKLNT | 1.141 | 0.000 | 0.687 | 0.919 | – | – | – | – |
| GSGQNQQPHLKSLT | – | – | – | – | 1.457 | 5.016 | 0.740 | 1.096 |
| GSGQNQQPLDTSRT | – | – | – | – | 1.015 | 0.775 | 0.376 | 0.491 |
| GSGQNQQPNSGSMT | – | – | – | – | 1.064 | 0.925 | 0.339 | 0.588 |
| GSGQNQQPPLATRT | 1.386 | 2.295 | 0.287 | 0.593 | – | – | – | – |
| GSGQNQQPSAFSKT | 1.220 | 4.906 | 0.754 | 1.309 | – | – | – | – |
| GSGQNQQPSLRQST | 1.356 | 2.905 | 0.554 | 1.315 | – | – | – | – |
| GSGQNQQPSSRVTT | – | – | – | – | 1.012 | 2.179 | 0.504 | 0.784 |
| GSGQNQQQIGGNST | – | – | – | – | 1.741 | 6.169 | 0.576 | 0.877 |
| GSGQNQQQRDGTLT | 1.152 | 0.387 | 0.730 | 0.760 | – | – | – | – |
| GSGQNQQRNSDSVT | – | – | – | – | 1.829 | 0.000 | 0.842 | 1.238 |
| GSGQNQQSALRTQT | – | – | – | – | 1.568 | 1.913 | 1.421 | 1.581 |
| GSGQNQQSANKILT | 1.331 | 3.789 | 1.236 | 0.894 | – | – | – | – |
| GSGQNQQSAREGLT | – | – | – | – | 3.111 | 5.632 | 1.104 | 1.221 |
| GSGQNQQSGRGDLT | – | – | – | – | 2.019 | 6.919 | 1.152 | 0.524 |
| GSGQNQQSGTFLST | – | – | – | – | 1.090 | 5.673 | 0.742 | 1.021 |
| GSGQNQQSHGRIGT | 1.173 | 5.117 | 0.455 | 0.607 | – | – | – | – |

| Sequence | Fold enrichment over AAV9 in the brain of NHPs ([1]; RNA from brain of NHPs, NGS) [fold] | Fold enrichment over AAV9 in the spinal cord of NHPs [1, 4] [fold] | Fold enrichment over AAV9 in the brain of Mice (BALB/c) (brain [2]; [5]) [fold] | Fold enrichment over AAV9 in the brain of Mice (C57Bl/6) (brain [3]; [6]) [fold] | Fold enrichment over AAV9 in the brain of NHPs ([1]; RNA NGS, brain of NHPs) [fold] | Fold enrichment over AAV9 in the spinal cord of NHPs ([1]; RNA NGS, spinal cord of NHPs) [fold] | Fold enrichment over AAV9 in the brain of Mice (BALB/c) (brain [2]; RNA NGS, brain of BALB/c mice) [fold] | Fold enrichment over AAV9 in the brain of Mice (C57Bl/6) (brain [3]; RNA NGS, brain of C57Bl/6 mice) [fold] |
| --- | --- | --- | --- | --- | --- | --- | --- | --- |
| GSGQNQQSHLRTNT | 1.251 | 4.583 | 0.718 | 1.022 | – | – | – | – |
| GSGQNQQSKQQVLT | – | – | – | – | 1.019 | 1.494 | 1.256 | 1.428 |
| GSGQNQQSLSGSFT | – | – | – | – | 1.105 | 0.735 | 0.883 | 0.745 |
| GSGQNQQSMADHTT | – | – | – | – | 1.494 | 1.728 | 0.215 | 0.428 |
| GSGQNQQSMGTFTT | – | – | – | – | 1.625 | 0.000 | 0.399 | 1.792 |
| GSGQNQQSNWITKT | – | – | – | – | 2.711 | 0.000 | 0.634 | 0.540 |
| GSGQNQQSQYMPRT | 1.234 | 0.401 | 0.520 | 0.549 | – | – | – | – |
| GSGQNQQSSFNVQT | – | – | – | – | 0.998 | 0.000 | 0.675 | 1.307 |
| GSGQNQQSTGTSRT | – | – | – | – | 1.103 | 4.054 | 0.935 | 1.209 |
| GSGQNQQTAHAFNI | 1.132 | 3.404 | 0.729 | 0.699 | – | – | – | – |
| GSGQNQQTAIYRNI | – | – | – | – | 1.854 | 2.207 | 1.437 | 0.818 |
| GSGQNQQTALEKSL | – | – | – | – | 1.092 | 0.000 | 0.702 | 0.625 |
| GSGQNQQTALGVKC | – | – | – | – | 1.835 | 1.343 | 1.014 | 1.378 |
| GSGQNQQTALYNNT | 1.307 | 0.862 | 0.726 | 0.660 | – | – | – | – |
| GSGQNQQTAMRSTT | – | – | – | – | 1.581 | 2.588 | 0.665 | 0.656 |
| GSGQNQQTGLRQQT | – | – | – | – | 1.533 | 2.120 | 1.103 | 1.217 |
| GSGQNQQTGMSSVK | – | – | – | – | 2.109 | 4.544 | 0.679 | 1.451 |
| GSGQNQQTGNPKHT | – | – | – | – | 1.504 | 5.973 | 1.139 | 1.391 |
| GSGQNQQTGQATHN | – | – | – | – | 0.996 | 2.199 | 0.527 | 0.877 |
| GSGQNQQTGQHMRV | 1.286 | 4.161 | 1.635 | 1.839 | – | – | – | – |
